Consider five compounds from paper PMC4498814, “Genetic Evidence for Function of the bHLH-PAS Protein Gce/Met As a Juvenile Hormone Receptor” (PLoS Genetics, 2015).

Read-outs that look alike come from different tables or passages of the source.

Broadly, the Kd is a measure of binding affinity in units of concentration. A word on the Ki: it is the dissociation constant of the complex between target and ligand, obtained from inhibition or displacement.

Assay [1] has as its target T1, Gce (germ cell-expressed) (Drosophila melanogaster, UniProt Q9VXW7).
T1 construct: amino acids 1–689, translated in vitro
T1 sequence (Q9VXW7 269-959): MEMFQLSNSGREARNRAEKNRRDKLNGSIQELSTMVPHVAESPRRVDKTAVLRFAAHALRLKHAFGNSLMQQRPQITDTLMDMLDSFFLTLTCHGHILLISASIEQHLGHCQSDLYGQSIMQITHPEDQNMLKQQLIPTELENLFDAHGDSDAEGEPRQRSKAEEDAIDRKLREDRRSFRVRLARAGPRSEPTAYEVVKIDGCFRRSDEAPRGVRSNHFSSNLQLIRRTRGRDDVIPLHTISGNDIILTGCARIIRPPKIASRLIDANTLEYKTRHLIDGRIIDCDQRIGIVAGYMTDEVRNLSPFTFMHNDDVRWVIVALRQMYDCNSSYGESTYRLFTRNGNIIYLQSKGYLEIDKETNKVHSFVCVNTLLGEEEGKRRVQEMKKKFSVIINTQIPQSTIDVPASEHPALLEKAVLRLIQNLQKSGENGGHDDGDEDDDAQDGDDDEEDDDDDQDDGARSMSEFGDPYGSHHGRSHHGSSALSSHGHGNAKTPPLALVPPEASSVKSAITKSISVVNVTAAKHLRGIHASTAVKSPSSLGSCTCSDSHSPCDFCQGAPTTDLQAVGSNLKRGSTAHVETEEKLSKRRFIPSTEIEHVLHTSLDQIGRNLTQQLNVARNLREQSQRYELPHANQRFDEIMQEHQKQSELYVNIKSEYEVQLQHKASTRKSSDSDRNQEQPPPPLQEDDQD
The assay is described as follows: [3H]JH III radioligand saturation binding, dextran-coated charcoal assay.

The target in assay [2] is T2, Met (Methoprene-tolerant) (Drosophila melanogaster, UniProt Q9VYW2).
T2 construct: amino acids 1–716, FLAG-tagged, expressed in S2 cells
T2 sequence (Q9VYW2 1-716): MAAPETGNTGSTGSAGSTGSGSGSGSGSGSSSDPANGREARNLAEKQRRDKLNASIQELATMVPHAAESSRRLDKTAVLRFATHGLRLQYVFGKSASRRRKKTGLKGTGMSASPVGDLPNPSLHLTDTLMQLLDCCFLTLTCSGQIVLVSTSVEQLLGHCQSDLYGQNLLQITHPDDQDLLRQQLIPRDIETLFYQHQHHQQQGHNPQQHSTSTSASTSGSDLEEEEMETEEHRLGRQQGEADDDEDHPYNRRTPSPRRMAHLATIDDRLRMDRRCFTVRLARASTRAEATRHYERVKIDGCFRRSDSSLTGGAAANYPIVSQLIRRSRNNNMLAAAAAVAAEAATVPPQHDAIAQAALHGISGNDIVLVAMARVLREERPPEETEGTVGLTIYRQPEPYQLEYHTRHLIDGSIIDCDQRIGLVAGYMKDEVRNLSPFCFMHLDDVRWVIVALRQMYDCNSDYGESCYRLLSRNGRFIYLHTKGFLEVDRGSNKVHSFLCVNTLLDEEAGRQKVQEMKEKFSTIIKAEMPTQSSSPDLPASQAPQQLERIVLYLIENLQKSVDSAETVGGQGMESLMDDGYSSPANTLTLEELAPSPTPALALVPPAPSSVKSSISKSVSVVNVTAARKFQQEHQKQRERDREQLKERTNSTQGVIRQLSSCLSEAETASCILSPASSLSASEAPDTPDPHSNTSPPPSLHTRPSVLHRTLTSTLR
The assay is described as follows: JHRE-luc reporter in S2 cells with endogenous Met and Gce depleted; pocket mutants inactive. The class given is cell-based.

Assay [3] concerns the target T1, Gce (germ cell-expressed). The assay is described as follows: competition radioligand binding against [3H]JH III, dextran-coated charcoal assay.

Compound `COC(=O)/C=C(\C)CC/C=C(\C)CCC1OC1(C)C` (racemic) [JH III] gave an equilibrium dissociation constant (Kd) in assay [1] of 19.3 ± 4.5 nM. The JHRE-luc reporter activity result in assay [2] is reported as “Like Gce, Met but not its mutated versions, mediated induction of JHRE-luc by JH III (Fig 3C)”.

`CC(COc1ccc(Oc2ccccc2)cc1)Oc1ccccn1` (stereo not drawn) [pyriproxyfen] gave a Ki in assay [3] of 5.7 ± 2.8 nM.

On to `COC(=O)/C=C(\C)CC/C=C(\C)CCC=C(C)C` [methyl farnesoate], for which the Ki in assay [3] (read-out: Ki) is 87.9 ± 22.2 nM.

The compound `COC(C)(C)CCC[C@H](C)C/C=C/C(C)=C/C(=O)OC(C)C` (racemic) [methoprene] showed a Ki in assay [3] of 45.8 ± 28.9 nM.

For `CC(C)=CCC/C(C)=C/CC/C(C)=C/CO` [farnesol], the Ki in assay [3] (read-out: Ki) is 8100 ± 2400 nM.
